Measurements as given in PMC11452043, “In vitro 5-LOX inhibitory and antioxidant potential of isoxazole derivatives” (PLOS ONE, 2024).

Columns and labels:
[1] = DPPH free radical scavenging (antioxidant) assay; details: for DPPH percent inhibition: mean ± SEM, n = 3
Experimental: The previously outlined methodology will be employed to evaluate the compounds’ antioxidant ability, as determined by the processes of the 1,1-diphenyl, 2-picrylhydrazyl (DPPH) free radical. The experimental specimens will be subjected to dilution using different quantities, spanning from 62.5 to 1000 μg/ml, and afterwards introduced into a methanolic solution of DPPH at a concentration of 0.004%. At 517 nm, the absorbance will be determined by a UV spectrophotometer following a 30-minute duration. The scavenging capability of ascorbic acid will be quantified by employing the equation: DPPH=[(A0−A1)/A0]100 Whereas: […]
Every test was carried out three times, and the median inhibitory dosages (IC50) were determined. The drawing of inhibition graphs was performed by GraphPad Prism software-GraphPAD, San Diego, California, USA.
The IC50 values were determined from dosage response curve using Microsoft Excel program.

5-LOX = details: cited from earlier work
COX = details: cited from earlier work
tumor growth = details: in vivo and in vitro; cited from earlier work
paw edema = details: dose dependent manner; cited from earlier work
[2] = biological target: T1, 5-lipoxygenase (5-LOX) enzyme (Homo sapiens, UniProt P09917); assay: 5-LOX inhibitory assay; assay type: biochemical; details: for inhibition at 62.5 µg/mL: 62.5 μg/ml; for inhibition at 62.5 µg/mL / inhibition at 125 µg/mL / inhibition at 250 µg/mL / inhibition at 500 µg/mL / inhibition at 1000 µg/mL: mean ± SEM, n = 3, read-out: 5-LOX percent inhibition; for inhibition at 125 µg/mL: 125 μg/ml; for inhibition at 250 µg/mL: 250 μg/ml; for inhibition at 500 µg/mL: 500 μg/ml; for inhibition at 1000 µg/mL: 1000 μg/ml
T1 sequence (P09917 1-674): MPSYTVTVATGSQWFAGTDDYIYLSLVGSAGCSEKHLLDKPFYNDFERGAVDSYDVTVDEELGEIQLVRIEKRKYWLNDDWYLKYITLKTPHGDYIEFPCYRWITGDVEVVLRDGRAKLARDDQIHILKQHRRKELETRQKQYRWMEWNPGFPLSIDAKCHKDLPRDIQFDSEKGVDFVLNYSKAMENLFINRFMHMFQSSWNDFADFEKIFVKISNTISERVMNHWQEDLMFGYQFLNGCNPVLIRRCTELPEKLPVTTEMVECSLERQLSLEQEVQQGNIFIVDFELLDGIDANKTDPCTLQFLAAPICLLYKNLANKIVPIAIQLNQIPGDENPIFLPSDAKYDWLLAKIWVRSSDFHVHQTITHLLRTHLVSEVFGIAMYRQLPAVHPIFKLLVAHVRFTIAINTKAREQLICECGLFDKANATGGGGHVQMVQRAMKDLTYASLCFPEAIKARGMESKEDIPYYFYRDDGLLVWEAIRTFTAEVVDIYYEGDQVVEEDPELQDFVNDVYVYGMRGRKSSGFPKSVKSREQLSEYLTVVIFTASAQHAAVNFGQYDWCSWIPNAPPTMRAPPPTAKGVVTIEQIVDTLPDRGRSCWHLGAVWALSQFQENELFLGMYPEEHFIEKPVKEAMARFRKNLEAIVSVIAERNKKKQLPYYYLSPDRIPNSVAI
Experimental: The synthesized Isoxazole derivatives will be investigated for 5-LOX Inhibition studies as per established protocols of Wisastra and his co researchers. In this experiment, residual enzyme potential will be utilized to measure the degree of enzyme inhibition after 10 to 15 minutes of inhibitor’s incubation at 25°C. The reaction involving the conversion of linoleic acid, a substrate of lipoxygenase, into hydroperoxy-octadecadienoate (HPOD) will be employed as a means of quantifying the said reaction. The variation in the rate of absorption will be determined by employing a UV-visible spectrophotometer set at a wavelength of 234 nm. A 50 mM Tris buffer containing 2 mM EDTA and 2 mM CaCl2 was used as the assay buffer in this experiment. The buffer has a pH of 7.5. Following this, a buffer solution was employed to dilute the 5-lipoxygenase (5-LOX) enzyme at a concentration of 20,000 units per millilitre (U/mL) at a ratio of 1:4000. The 100 mM inhibitor was diluted using the test buffer following the administration of dimethyl sulfoxide (DMSO) for its dissolution. The content of linoleic acid was reduced to 20 mg/ml through dilution using ethyl alcohol. To accomplish this, 1 mL of the enzyme solution (1: 4000) will be combined with 100 μL of 2 mM adenosine triphosphate (ATP), 100 μL of the inhibitor (1 mM), and […] of Tris buffer while incubated for 10 min. Following approximately 10 seconds of the substrate and the enzyme mixing together, 10 μL of a 20 mM substrate solution will be added to the mixture. At that point, the changing rate of the substrate will be determined. The response rate will be utilized as a positive control without blockers. In this experiment, montelukast will be utilized as the reference medicine.

Row | Compound | IC50 [1] [µM] | DPPH percent inhibition ([1]; 62.5 μg/mL) [%] | DPPH percent inhibition ([1]; 125 μg/mL) [%] | DPPH percent inhibition ([1]; 250 μg/mL) [%] | DPPH percent inhibition ([1]; 500 μg/mL) [%] | DPPH percent inhibition ([1]; 1000 μg/mL) [%] | activity of 5-LOX (5-LOX) | activity of COX (COX) | inhibition on tumor growth (tumor growth) | inhibition of paw edema (paw edema) | IC50 [2] [µM] | inhibition at 62.5 µg/mL [2] [%] | inhibition at 125 µg/mL [2] [%] | inhibition at 250 µg/mL [2] [%] | inhibition at 500 µg/mL [2] [%] | inhibition at 1000 µg/mL [2] [%]
1 | O=C1O[C@H]([C@@H](O)CO)C(O)=C1O [Ascorbic acid, reference compound] | 17.9 | 77.72±0.59 | 79.37±0.71 | 82.25±0.72 | 87.65±0.42 | 92.51±0.69 |  |  |  |  |  |  |  |  |  | 
2 | COc1cc(-c2cc(-c3sccc3C)no2)cc(OC)c1OC [Compound 65] |  |  |  |  |  |  | considerably reduce | considerably reduce | excellent inhibition |  |  |  |  |  |  | 
3 | CCO/C(C)=N/c1onc(C)c1C(=O)NCc1ccc(OC)cc1OC [Compound 64] |  |  |  |  |  |  |  |  |  | strongly inhibited |  |  |  |  |  | 
4 | COc1ccc(C2NC(=O)NC(C(F)(F)F)=C2c2cc(-c3ccco3)on2)cc1 (stereo not shown) [Compound C6] | 18.9 | 73.72±0.64 | 78.42±0.66 | 83.53±0.45 | 88.45±0.49 | 91.63±0.55 |  |  |  |  | 3.67 | 81.9 ± 0.96 | 85.08 ± 0.47 | 88.8 ± 1.26 | 91.4 ± 0.2 | 94.6 ± 1.12
5 | CC(C)(O)c1ccccc1CC[C@@H](SCC1(CC(=O)O)CC1)c1cccc(/C=C/c2ccc3ccc(Cl)cc3n2)c1 [Montelukast, reference compound] |  |  |  |  |  |  |  |  |  |  | 21.8 | 71.8 ± 0.9 | 76.4 ± 1.2 | 81.6 ± 1.63 | 87.5 ± 0.9 | 94.1 ± 1.04
